Experimental data published in paper PMC9127750, “Structure-based design of CDC42 effector interaction inhibitors for the treatment of cancer” (Cell reports, 2022).
Where “and” joins values, the source holds several entries; their conditions need not be identical. Equal entries are not always repeated.

Test system: WM3248 melanoma cells, 486 antibodies
Test: Reverse phase protein arrays (RPPA)
Format: cell-based, Human
Source text: Pellets were snap frozen in liquid nitrogen and shipped to MD Anderson Cancer Center core RPPA facility for RPPA analysis (Table S5). Three biological replicates for each sample were generated.
Nomenclatures on the RPPA heatmaps: name_of_antibody.species_of_antibody.status_of_antibody. V - antibody validated; C - validation of antibody in progress; Q - antibody nonspecific; E – under evaluation; antibodies raised in M - mouse, G - goat, R - rabbit, or T - rat.

[1] = 20, replicates 1-3, normalized to 0
[2] = Norm_5: replicates 1-3 and Average, relative to 0

Compound: CN(C)c1cccc(Nc2cc(-c3ccccc3)nc(C3CCNCC3)n2)c1 [ARN22089, N1,N1-dimethyl-N3-(6-phenyl-2-(piperidin-4-yl)pyrimidin-4-yl)benzene-1,3-diamine]
- eIF4E_pS209.R.V Norm_20 [1]: 0.954 and 0.835 and 1.321
- eIF4G.R.C Norm_20 [1]: 1.493 and 1.003 and 0.999
- MYH11.R.C Average (Norm_5, normalized to Norm_0): 1.033
- Myosin.IIa.R.C Average (Norm_5, normalized to Norm_0): 0.991
- Myosin.IIa_pS1943.R.V Average (Norm_5, normalized to Norm_0): 0.992
- Myt1.R.C Average (Norm_5, normalized to Norm_0): 1.030
- N.Cadherin.R.V Average (Norm_5, normalized to Norm_0): 0.967
- N.Ras.M.V Average (Norm_5, normalized to Norm_0): 0.979
- NDRG1_pT346.R.V Average (Norm_5, normalized to Norm_0): 1.270
- NDUFB4.R.V Average (Norm_5, normalized to Norm_0): 0.954
- NRF2.R.C Average (Norm_5, normalized to Norm_0): 1.024
- Notch1.R.V Average (Norm_5, normalized to Norm_0): 0.893
- Notch1.cleaved.R.V Average (Norm_5, normalized to Norm_0): 1.048
- Notch3.R.C Average (Norm_5, normalized to Norm_0): 0.987
- Oct.4.R.C Average (Norm_5, normalized to Norm_0): 1.097
- P.Cadherin.R.C Average (Norm_5, normalized to Norm_0): 1.185
- PAI.1.M.V Average (Norm_5, normalized to Norm_0): 0.899
- PAICS.R.C Average (Norm_5, normalized to Norm_0): 0.934
- PAK1.R.V Average (Norm_5, normalized to Norm_0): 0.952
- PAK4.R.V Average (Norm_5, normalized to Norm_0): 0.942
- PAK_pS474_S602_S560.R.V Average (Norm_5, normalized to Norm_0): 0.943
- PAK_pT423_T402.R.C Average (Norm_5, normalized to Norm_0): 0.942
- PAR.R.C Average (Norm_5, normalized to Norm_0): 2.806
- PARG.R.C Average (Norm_5, normalized to Norm_0): 1.053
- PAX6.R.V Average (Norm_5, normalized to Norm_0): 0.980
- PAX8.R.C Average (Norm_5, normalized to Norm_0): 0.929
- PCNA.M.C Average (Norm_5, normalized to Norm_0): 0.930
- PD.1.R.V Average (Norm_5, normalized to Norm_0): 0.933
- PD.L1.R.C Average (Norm_5, normalized to Norm_0): 1.049
- PDH.M.V Average (Norm_5, normalized to Norm_0): 0.971
- PDHA1.R.V Average (Norm_5, normalized to Norm_0): 1.000
- PDHK1.R.C Average (Norm_5, normalized to Norm_0): 1.047
- PDK1.R.V Average (Norm_5, normalized to Norm_0): 1.053
- PDK1_pS241.R.V Average (Norm_5, normalized to Norm_0): 1.123
- PEA.15.R.V Average (Norm_5, normalized to Norm_0): 0.989
- PEA.15_pS116.R.V Average (Norm_5, normalized to Norm_0): 0.945
- PERK.R.V Average (Norm_5, normalized to Norm_0): 0.967
- PGM1.R.V Average (Norm_5, normalized to Norm_0): 1.019
- PHLPP.R.V Average (Norm_5, normalized to Norm_0): 1.011
- PI3K.p85.R.C Average (Norm_5, normalized to Norm_0): 0.931
- PI3K.p110.a.R.C Average (Norm_5, normalized to Norm_0): 1.007
- PI3K.p110.b.M.C Average (Norm_5, normalized to Norm_0): 0.980
- PKA.a.R.V Average (Norm_5, normalized to Norm_0): 1.083
- PKC.a.b.II_pT638_T641.R.V Average (Norm_5, normalized to Norm_0): 0.910
- PKC.b.II_pS660.R.V Average (Norm_5, normalized to Norm_0): 1.083
- PKCa.R.V Average (Norm_5, normalized to Norm_0): 1.160
- PLC.gamma1.R.V Average (Norm_5, normalized to Norm_0): 1.065
- PLC.gamma1_pS1248.R.V Average (Norm_5, normalized to Norm_0): 1.197
- PLC.gamma2_pY759.R.V Average (Norm_5, normalized to Norm_0): 0.941
- PLK1.R.C Average (Norm_5, normalized to Norm_0): 0.892
- PMS2.R.V Average (Norm_5, normalized to Norm_0): 0.916
- PR.R.V Average (Norm_5, normalized to Norm_0): 0.959
- PRAS40.M.C Average (Norm_5, normalized to Norm_0): 0.988
- PRC1_pT481.R.C Average (Norm_5, normalized to Norm_0): 0.915
- Patched.R.C Average (Norm_5, normalized to Norm_0): 1.046
- Paxillin.R.C Average (Norm_5, normalized to Norm_0): 1.013
- Pdcd4.R.C Average (Norm_5, normalized to Norm_0): 1.126
- Porin.M.V Average (Norm_5, normalized to Norm_0): 0.959
- p21.R.C Average (Norm_5, normalized to Norm_0): 0.958
- p27.Kip1.R.C Average (Norm_5, normalized to Norm_0): 0.986
- p27_pT157.R.C Average (Norm_5, normalized to Norm_0): 1.081
- p27_pT198.R.V Average (Norm_5, normalized to Norm_0): 1.051
- p38.MAPK._pT180_Y182.R.V Average (Norm_5, normalized to Norm_0): 1.202
- p38.a.M.V Average (Norm_5, normalized to Norm_0): 0.984
- p44.42.MAPK.R.V Average (Norm_5, normalized to Norm_0): 1.160
- p53.R.C Average (Norm_5, normalized to Norm_0): 1.083
- p70.S6K1.R.V Average (Norm_5, normalized to Norm_0): 1.109
- p90RSK_pT573.R.C Average (Norm_5, normalized to Norm_0): 0.871
- PREX1.R.V normalized RPPA signal [2]: 1.167 and 1.060 and 1.135 and 1.121
- PTEN.R.V normalized RPPA signal [2]: 1.061 and 1.012 and 1.047
- PTPN12.R.V normalized RPPA signal [2]: 1.010 and 0.988 and 1.023
- PYGB.R.V normalized RPPA signal [2]: 1.017 and 1.164 and 0.766 and 0.982
- PYGM.M.C normalized RPPA signal [2]: 0.997 and 1.153 and 0.846 and 0.999
- Puma.R.C normalized RPPA signal [2]: 1.064 and 1.136 and 0.836 and 1.012
- Pyk2_pY402.R.C normalized RPPA signal [2]: 1.133 and 1.024 and 1.065
- RBM15.R.V normalized RPPA signal [2]: 0.984 and 1.128
- RIP3.R.C normalized RPPA signal [2]: 1.061 and 1.027 and 1.055 and 1.048
- RIP.R.C normalized RPPA signal [2]: 0.916 and 0.977 and 0.799 and 0.897
- RPA32.R.V normalized RPPA signal [2]: 1.150 and 0.846 and 1.011
- RPA32_pS4_S8.R.C normalized RPPA signal [2]: 1.171 and 1.234 and 0.878
- RRM1.R.C normalized RPPA signal [2]: 0.936 and 0.952 and 0.975
- RRM2.R.C normalized RPPA signal [2]: 0.907 and 1.001 and 0.922 and 0.943
